Patent publication US8614215B2, “Quinoxaline inhibitors of phosphoinositide-3-kinases (PI3Ks)” (Merck Serono SA, priority 2007, dated 2013)

How the values were obtained:
[1] = system: Human recombinant GST-PI3K; assay: PI3K induced-lipid phosphorylation, neomycin-SPA scintillation proximity assay; type: biochemical; settings: Human recombinant GST-PI3K, SPA
[2] = system: IgM-induced Akt phosphorylation in B cell; assay: IgM-induced Akt phosphorylation in B cell (PBMC, flow cytometry); type: cell-based; settings: human PBMC, CD19+ IgM+ B cells, read-out: IC50 μM, inhibition of IgM-induced Akt phosphorylation
Protocol: Human PBMC were prepared from a Buffy coat (Geneve Hospital) after a Ficoll gradient (Ficoll-Paque™ Plus PHARMACIA ref: 17-1440-03).
Cell concentration was adjusted to 10^6 cells per mL in RPMI (GIBCO Ref: 72400-21) without serum. Before stimulation, 90 μl of PBMC suspension was incubated with 10 μl of diluted compound in a 96 well round bottom plate for 20 minutes at 37° C.
For B cell activation, 30 μl of Fab′2 Goat anti IgM (Jackson Immuno-research) at10 μg/mL was added to each well. After 5 minutes, cell activation was stopped with 4% paraformaldehyde (10 minutes at room temperature).
Fixed PBMC were then treated for 20 minutes with 0.15% Triton, washed twice with PBS and permeabilized with 50% methanol for 15 minutes.
PBMC were washed twice in PBS, resuspended in: PBS-4% FCS and incubated with anti P-Akt ( 1/100 dilution) for one h at room temperature.
After one wash, PBMC were further stained for 30 minutes with a mixture of anti-CD19-PE (BD Biosciences), anti-IgM-FITC (BD Biosciences) and goat anti rabbit IgG-Alexa 647 (Molecular probe).
After washing, PBMC (Peripheral Blood Mononuclear Cells) were analysed on a FACSCalibur instrument (BD Biosciences) equipped with a 633 helium-neon laser, or stored at 4° C. for further analysis. 510^3 B cells events were gathered per sample in the CD19 positive region.
For the analysis, a threshold was applied on P-Akt histogram of CD19+ IgM+ lymphocytes cells from the non stimulated samples and the percentage of cells above this threshold was determined for each sample.

[3] = system: IgM-induced Akt phosphorylation in B cell in the presence of whole blood; assay: IgM-induced Akt phosphorylation in B cell in the presence of whole blood; type: cell-based; settings: Homo sapiens, CD19+ IgM+ cells, read-out: IC50 μM, inhibition of IgM-induced Akt phosphorylation in the presence of whole blood
Protocol: 100 μl of blood are pre-incubated in falcon tube (352063) for 20 minutes at 37° C.
For B cell activation 100 μl of Fab′2 Goat anti Human IgM (30 ug/mL final) is added to each tube and cells are maintained at 37° C.
After 5 minutes, cell activation is stopped with 130 μl Formaldehyde 10% (4% final) and cells are left 10 minutes at room temperature.
Fixed cells are then treated 30 minutes with Triton 0.1% final (add 1 mL of 0.15% Triton)
After several washes with PBS (red cells lysed progressively during washes, 3-4 washes are necessary), cells are transferred in 96 well plate and permeabilized with 50% ice cold Methanol (resuspend first the cells with 80 μl PBBS and then with 80 μl 100% ice cold Methanol) and put on ice for 15 minutes. Plate can be stored in −20° C. in methanol and surface staining performed another day).
Cells are washed twice with PBS and once with the staining buffer-PBS-4% FCS.
Cells are incubated with anti P-Akt (1/70 dilution) In staining buffer for one h.
After a wash with staining buffer, cells are stained with a mixture of anti CD19-PE (3 ul/well), anti-IGM-FITC (3 ul/well), Goat anti rabbit IgG-Alexa 647 (1/500), goat IgG (1/200) for 30 minutes.
After a wash, cells are resuspended in staining buffer or PBS, kept in fridge or immediately passed on a FACSCalibur instrument (BD Biosciences) equipped with a 633 helium-neon laser (red laser).
P-akt histogram of CD19+IGM+ cells is represented and a threshold is set with the non stimulated sample. The parameter reported for each sample is the % of positive cells above this cursor. A representative example is set out in FIG. 1.

Class I PI3-kinases = settings: Fruman et al., 1998; read-out: IC50 against each of the various Class I PI3-kinases; cited from earlier work
CK2 protein kinase = CK2 protein kinase (Homo sapiens (Human), UniProt P68400); settings: Fruman et al., 1998; cited from earlier work
[4] = Ex-vivo IgM-induced Akt phosphorylation in mouse after oral administration; settings: male, C57Bl/6, blood
Protocol: Compounds are dissolved in 0.5% Carboxymethylcellulose containing 0.25% Tween 20 in water and administered orally to each mouse (6-8 weeks old C57B1/6 males from janvier) in a volume of 10 mL/kg. Half an hour before blood collection, heparin at 100 U/kg is injected intraperitonealy to each mouse. At appropriate Tm (maximum exposure) mice are sacrificed and blood collected by intra-cardiac puncture in heparinised tubes.
Blood is pre-incubated at 37° C. for 20 minutes, then an equal volume of Fab′2 Goat anti-Mouse IgM (μspecific, Jackson ImmunoResearch) at 60 μg/mL is added to each tube. B cell activation is terminated after 3 minutes using formaldehyde 4% final and red blood cells are lysed with another 30 minutes Triton X-100 0.1% treatment. Further to several washes with PBS, cells are transferred in a 96 well plate, permeabilized with 50% ice cold Methanol and put on ice for 15 minutes.
Cells were washed PBS before being incubated for one hour with a Rabbit anti Phospho-Akt antibody (4058 from Cell Signaling) in PBS-4% FCS. […]
Cells were analysed on a FACSCalibur instrument (BD Biosciences) equipped with a 633 helium-neon laser (red laser) and 5.10^3 B cells are collected. A threshold was applied on P-Akt histogram of B220^+ IgM+ lymphocytes from the non stimulated tube and the percentage of cells above this threshold is determined for each sample.

Sequence of CK2 protein kinase (P68400 whole entry): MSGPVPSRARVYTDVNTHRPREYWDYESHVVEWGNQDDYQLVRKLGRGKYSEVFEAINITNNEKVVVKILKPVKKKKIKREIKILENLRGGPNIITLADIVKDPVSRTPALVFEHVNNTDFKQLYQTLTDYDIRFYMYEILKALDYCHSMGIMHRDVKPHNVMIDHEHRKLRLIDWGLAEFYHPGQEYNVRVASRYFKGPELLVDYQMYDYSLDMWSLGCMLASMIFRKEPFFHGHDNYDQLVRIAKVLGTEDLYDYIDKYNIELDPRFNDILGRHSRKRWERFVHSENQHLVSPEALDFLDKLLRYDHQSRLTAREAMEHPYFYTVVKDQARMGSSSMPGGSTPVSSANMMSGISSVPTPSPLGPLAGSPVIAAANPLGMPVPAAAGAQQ

COc1ccc(CC2CCOCC2)c(Nc2nc3ccccc3nc2NS(C)(=O)=O)c1 [Example 8, N-(3-{[5-methoxy-2-(tetrahydro-2H-pyran-4-ylmethyl)phenyl]amino}quinoxalin-2-yl)methanesulfonamide]
IC50 [1]: 0.13 µM | IC50 [2]: 0.07 µM

COc1ccc(CC2CCOCC2)c(Nc2nc3ccccc3nc2NS(=O)(=O)c2cccnc2)c1 [Example 9, N-(3-{[5-methoxy-2-(tetrahydro-2H-pyran-4-ylmethyl)phenyl]amino}quinoxalin-2-yl)pyridine-3-sulfonamide]
IC50 [1]: 0.027 µM | IC50 [2]: 0.01 µM

COc1ccc(CC2CCN(C(C)=O)CC2)c(Nc2nc3ccccc3nc2NS(=O)(=O)c2cccnc2)c1 [Example 17]
IC50 [1]: 0.051 µM | IC50 [2]: 0.037 µM

COc1ccc(CC2CCN(C)CC2)c(Nc2nc3ccccc3nc2NS(C)(=O)=O)c1 [Example 13, N-[3-({5-methoxy-2-[(1-methylpiperidin-4-yl)methyl]phenyl}amino)quinoxalin-2-yl]methanesulfonamide]
IC50 [1]: 0.11 µM | IC50 [2]: 0.07 µM | IC50 [3]: 1 µM

COC[C@H]1OC(=O)c2coc3c2[C@@]1(C)C1=C(C3=O)[C@@H]2CCC(=O)[C@@]2(C)C[C@H]1OC(C)=O [Wortmannin]
IC50 (Class I PI3-kinases): 0.001 to 0.01 µM

COc1ccc(CC2CCN(C(C)=O)CC2)c(Nc2nc3ccccc3nc2NS(=O)(=O)c2cn(C)cn2)c1 [Example 16, N-[3-({2-[(1-acetylpiperidin-4-yl)methyl]-5-methoxyphenyl}amino)quinoxalin-2-yl]-1-methyl-1H-imidazole-4-sulfonamide]
IC50 [1]: 0.089 µM | IC50 [2]: 0.076 µM

COc1ccc(CC2CCN(C)CC2)c(Nc2nc3ccccc3nc2NS(=O)(=O)c2cn(C)cn2)c1 [Example 11, N-[3-({5-methoxy-2-[(1-methylpiperidin-4-yl)methyl]phenyl}amino)quinoxalin-2-yl]-1-methyl-1H-imidazole-4-sulfonamide]
IC50 [1]: 0.043 µM | IC50 [2]: 0.07 µM | IC50 [3]: 0.3 µM

COc1ccc(CC2CCOCC2)c(Nc2nc3ccccc3nc2NS(=O)(=O)c2ccc(CN(C)C)cc2)c1 [Example 86, 4-[(dimethylamino)methyl]-N-(3-{[methoxy-2-(tetrahydro-2H-pyran-4-ylmethyl)phenyl]amino}quinoxalin-2-yl)benzenesulfonamide]
IC50 [2]: 0.013 µM

COC(=O)c1ccc(OC)cc1Nc1nc2ccccc2nc1NS(=O)(=O)c1cn(C)cn1 [Example 1, methyl 4-methoxy-2-[(3-{[(1-methyl-1H-imidazol-4-yl)sulfonyl]amino}quinoxalin-2-yl)amino]benzoate]
IC50 [1]: 0.021 µM | IC50 [2]: 0.07 µM

COc1ccc(CC2CCC(O)CC2)c(Nc2nc3ccccc3nc2NS(=O)(=O)c2cccnc2)c1 (centres unmarked) [Example 23, N-[3-({2-[(4-hydroxycyclohexyl)methyl]-5-methoxyphenyl}amino)quinoxalin-2-yl]pyridine-3-sulfonamide]
IC50 [1]: 0.02 µM | IC50 [2]: 0.017 µM

COc1ccc(CC2CCOCC2)c(Nc2nc3ccccc3nc2NS(=O)(=O)c2cn(C)cn2)c1 [Example 7, N-(3-{[5-methoxy-2-(tetrahydro-2H-pyran-4-ylmethyl)phenyl]amino}quinoxalin-2-yl)-1-methyl-1H-imidazole-4-sulfonamide]
IC50 [1]: 0.049 µM | IC50 [2]: 0.02 µM

COc1cc(Nc2nc3ccccc3nc2NS(=O)(=O)c2cccnc2)cc(C(=O)N2CCN(C)CC2)c1 [Example 4, N-[3-({3-methoxy-5-[(4-methylpiperazin-1-yl)carbonyl]phenyl}amino)quinoxalin-2-yl]pyridine-3-sulfonamide]
IC50 [1]: 3.34 µM

COCCc1ccc(OC)cc1Nc1nc2ccccc2nc1NS(=O)(=O)C1CCNCC1 [Example 100, N-(3-{[5-Methoxy-2-(2-methoxyethyl)phenyl]amino}quinoxalin-2-yl)piperidine-4-sulfonamide]
IC50 [1]: 0.098 µM

O=c1cc(N2CCOCC2)oc2c(-c3ccccc3)cccc12 [LY294002]
IC50 (CK2 protein kinase): 5000 to 10000 µM

COc1ccc(CCO)c(Nc2nc3ccccc3nc2NS(=O)(=O)c2ccc(C#N)cc2)c1 [Example 34]
IC50 [1]: 0.022 µM

COC(=O)c1ccc(OC)cc1Nc1nc2ccccc2nc1NS(=O)(=O)c1cccnc1 [Example 2]
IC50 [1]: 0.088 µM | IC50 [2]: 0.04 µM

COc1cc(Nc2nc3ccccc3nc2NS(C)(=O)=O)cc(C(=O)N2CCOCC2)c1 [Example 6, N-(3-{[3-methoxy-5-(morpholin-4-ylcarbonyl)phenyl]amino}quinoxalin-2-yl)methanesulfonamide]
IC50 [1]: 5.62 µM

COc1ccc(CCCO)c(Nc2nc3ccccc3nc2NS(=O)(=O)C2CCN(C(=O)OCc3ccccc3)CC2)c1 [Example 66, Benzyl 4-{[(3-{[2-(3-hydroxypropyl)-5-methoxyphenyl]amino}quinoxalin-2-yl)amino]sulfonyl}piperidine-1-carboxylate]
IC50 [1]: 0.72 µM

COc1ccc(S(=O)(=O)NCCO)c(Nc2nc3ccccc3nc2NS(=O)(=O)CCCS(C)(=O)=O)c1 [Example 64, N-(2-Hydroxyethyl)-4-methoxy-2-{[3-({[3-(methylsulfonyl)propyl]sulfonyl}amino)quinoxalin-2-yl]amino}benzenesulfonamide]
IC50 [1]: 0.3 µM

COc1ccc(CC2CC(C)(C)N(C)C(C)(C)C2)c(Nc2nc3ccccc3nc2NS(=O)(=O)c2cn(C)cn2)c1 [Example 14, N-[3-({5-methoxy-2-[(1,2,2,6,6-pentamethylpiperidin-4-yl)methyl]phenyl}amino)quinoxalin-2-yl]-1-methyl-1H-imidazole-4-sulfonamide]
IC50 [1]: 0.42 µM

COc1ccc(CCCO)c(Nc2nc3ccccc3nc2NS(=O)(=O)c2cccc(NC(=O)CO)c2)c1 [Example 102, 2-Hydroxy-N-(3-{[(3-{[2-(3-hydroxypropyl)-5-methoxyphenyl]amino}quinoxalin-2-yl)amino]sulfonyl}phenyl)acetamide]
IC50 [1]: 0.012 µM

COc1ccc(CC2CCC(O)CC2)c(Nc2nc3ccccc3nc2NS(=O)(=O)c2cn(C)cn2)c1 (centres unmarked) [Example 22, N-[3-({2-[(4-hydroxycyclohexyl)methyl]-5-methoxyphenyl}amino)quinoxalin-2-yl]-1-methyl-1H-imidazole-4-sulfonamide]
IC50 [1]: 0.018 µM

COc1ccc(CN2CCN(C)CC2)c(Nc2nc3ccccc3nc2NS(=O)(=O)c2cccnc2)c1 [Example 81, N-[3-({5-methoxy-2-[(4-methylpiperazin-1-yl)methyl]phenyl}amino)quinoxalin-2-yl]pyridine-3-sulfonamide]
IC50 [1]: 0.049 µM | IC50 [2]: 0.03 µM | Tmax [4]: 15 min | IC50 [3]: 1.9 µM
